According to patent US8658687B2, “Injectable formulations containing asenapine and method of treatment using same” (Merck Sharp & Dohme Corp., priority 2009, dated 2014):

Key:
[1] = IM depot of suspended olanzapine pamoate particles; cited from earlier work
[2] = Stability of particles suspended in pH 7 phosphate buffer on storage, crystal form followed by DSC; assay type: physicochemical; details: suspended in phosphate buffer pH 7, stored at 30° C. and 40° C.
Procedure: With reference to FIG. 2a, the conversion of Form I to Form II was monitored by periodically taking aliquots of the stored suspension, isolating the suspended solids by filtration and drying the isolated solids at room temperature. DSC analysis was performed on the isolated, dried solids using a 10 mg sample of the solids and a Mettler DSC 822e programmed to heat at a rate of 10° C./min, from 25° C. to 250° C. The results of this study are presented in, with the result shown in the upper traces of FIG. 2a.

[3] = Plasma levels of asenapine after IM depot injection in rabbits; assay type: in vivo, New Zealand white rabbits; details: 1 mL IM injection, 20 wt % suspension, Form I mean particle size 20 micron, Form II 16 micron, rabbit
Procedure: Each of the formulations prepared in Example 2 were administered to a series of experimental animal subjects (New Zealand white rabbits) as a depot injection. A depot of 1 mL volume of the formulation selected was administered into the left limb of the subject. At time intervals following injection, blood samples were collected from the subject's ear artery in 0.03 mL of 0.2M EDTA, Samples were collected at 1, 3, and 6 hours post injection, then 1, 2, 3, and 6 days post injection, then on days 10, 13, 17, 20, 24 and 25. Once collected, blood samples were centrifuged for 2 min. at room temperature (125,000 N/kg). Plasma samples thus obtained were analyzed by LC/MS after adding an internal standard. The asenapine and internal standard were isolated from the sample by solid phase extraction. […]
In additional animal studies, and with Reference to FIG. 10, using the same procedures described above, suspensions comprising 20 wt % of asenapine hemipamoate of Form I (mean particle size of 20 micron) and Form II (mean particle size 16 micron) were prepared. […] Plasma levels of asenapine were determined using the above-described procedure. […]

[4] = Solubility in aqueous phosphate buffer at pH 7
[5] = In vitro dissolution in USP paddle stirring dissolution apparatus; details: for rate of dissolution, Form I compared with Form II (FIG. 8a): phosphate buffered saline 10 mM pH 7.0, 37° C., 100 RPM, similar particle size fractions
Procedure: To carry out these studies, particle, fractions of crystalline Form II of asenapine hemipamoate having d50, values of 3.5 microns, 7 microns, and 20 microns respectively, (see FIG. 7e) were obtained and placed into one of the dissolution vessels of the apparatus. Prior to charging a dissolution vessel with an aliquot of particles, each of the vessels was filled with 1 L of phosphate buffered saline (10 mM, adjusted to pH 7.0) and fitted with a probe that contained a mirror and optical arrangement in its tip defining a fixed sample path. Each probe was optically connected to a central light source and detector permitting real-time photometric monitoring of the concentration of asenapine in solution as dissolution proceeded during the investigation.
The particle fractions were prepared for use in the apparatus by dispersing the sample (20 mg) in 1 mL of an aqueous solution comprising 3 wt. % macrogol 3400, 0.118 wt. % of disodium hydrogen phosphate, 0.047 wt. % sodium dihydrogen phosphate and 0.76 wt. % sodium chloride. Each determination was carried out by adjusting the apparatus to the desired dissolution conditions (temperature, paddle speed, pH of dissolution media) and injecting 50 microliter of the selected crystalline Form II of asenapine hemipamoate dispersion (equivalent to 1 mg of crystalline Form II of asenapine hemipamoate) into a dissolution vessel filled with the desired dissolution medium. Asenapine hemipamoate concentration in the dissolution medium was monitored optically using the probe system described above during the course of the dissolution.
The above-described in vitro testing methodology was used to compare the dissolution of crystalline crystalline Form I of asenapine hemipamoate hemipamoate (as precipitated) and crystalline Form II of asenapine hemipamoate (as precipitated). Accordingly, 20 mg of a particle fraction of crystalline Form I of asenapine hemipamoate having a d50 value of 19 microns, a d90 value of 41 microns and a d10 value of 3 microns was dispersed into 2 mL of a polysorbate 80 solution. An aliquot of 100 microliter of the dispersion was introduced into dissolution medium contained in a paddle stirring apparatus as described above. For these tests the dissolution vessels of the apparatus were filled with 1 L of phosphate buffered saline (10 mM, adjusted to pH 7.0). The temperature of the dissolution medium was maintained at 37° C. and the apparatus paddle speed was set at 100 RPM.
For comparison, a 100 microliter sample of a dispersion comprising 100 mg of crystalline Form II of asenapine hemipamoate particle fraction having a d50 value of 16 microns, a d90 value of 50 microns, and a d10 value of 2 microns, dispersed in 1 mL of a polysorbate 80 solution, as described above was studied under the same conditions and dissolution medium used to study the sample containing crystalline Form I of asenapine hemipamoate.

[6] = Plasma concentration of asenapine after depot injection in patients with stable chronic schizophrenia; assay type: in vivo, human; details: 1.0 mL of 20 wt % suspension in deltoid muscle, d50 10 microns
Procedure: Formulations of the invention were studied in human patients diagnosed with stable chronic schizophrenia. Using the same procedure described above, a suspension was prepared comprising 20 wt % of crystalline Form II of asenapine hemipamoate. The Form II particle fraction employed to prepare the suspension yielded a d10 value of 3 microns, a d90 value of 27 microns and a d50 value of 10 microns. An injection of 1.0 mL volume of the suspension was administered in the deltoid muscle of the upper arm by inserting the needle in the thickest part of the deltoid muscle at a 90 degree angle to the skin, followed by aspiration for 5 to 10 seconds, followed by injection of the depot over a 10 second interval. The plasma concentration of asenapine provided by the depot was observed using the above-described procedure.

[7] = IM depot injection, mean particle diameter 6.63, 10.68, 17.16 or 29.96 microns, dogs; cited from earlier work

Cc1cc2c(s1)Nc1ccccc1N=C2N1CCN(C)CC1.O.O=C(O)c1cc2ccccc2c(Cc2c(O)c(C(=O)O)cc3ccccc23)c1O [olanzapine pamoate]
adverse events in trials [1]: extreme sedation and reversible coma

CN1C[C@@H]2c3ccccc3Oc3ccc(Cl)cc3[C@H]2C1.CN1C[C@@H]2c3ccccc3Oc3ccc(Cl)cc3[C@H]2C1.O=C(O)c1cc2ccccc2c(Cc2c(O)c(C(=O)O)cc3ccccc23)c1O [crystalline Form I of asenapine hemipamoate] [reference compound]
stability of crystalline form on storage of suspension (DSC of recovered solids) [2]: slowly converted to crystalline Form II of asenapine hemipamoate
initial plasma levels, Form I versus Form II (FIG. 10) [3]: burst release
solubility of Form I relative to Form II [4]: approximately 4 times
rate of dissolution, Form I compared with Form II (FIG. 8a) [5]: significantly higher

CN1C[C@@H]2c3ccccc3Oc3ccc(Cl)cc3[C@H]2C1.CN1C[C@@H]2c3ccccc3Oc3ccc(Cl)cc3[C@H]2C1.O=C(O)c1cc2ccccc2c(Cc2c(O)c(C(=O)O)cc3ccccc23)c1O [crystalline Form II of asenapine hemipamoate]
stability of crystalline form on storage of suspension (DSC of recovered solids) [2]: does not decompose or convert to any other crystalline form
period of controlled release of asenapine (FIG. 11) [6]: about 4 weeks
effect of temperature of dissolution medium on dissolution behavior (FIG. 7b) ([5]; 35° C. to 39° C.): reasonably insensitive to variation in temperature
effect of paddle speed on dissolution behavior (FIG. 7d) ([5]; 50 rpm to 150 rpm): reasonably insensitive to variation in the paddle speed
effect of dissolution medium pH on rate of dissolution (FIG. 7c) ([5]; pH 6 to pH 8, d50 3.5 or 20 micron fractions): does not significantly vary the rate of dissolution
rate of dissolution, Form I compared with Form II (FIG. 8a) [5]: dissolve much slower
effect of d50 value of particle fraction on rate of dissolution (FIG. 7a) ([5]; same conditions, d50 3.5, 7, 20 microns): greatly influenced by the d50 value

CCC1(c2ccccc2)C(=O)NC(=O)NC1=O [phenobarbital]
plasma concentrations of phenobarbital versus mean particle diameter (FIG. 1) [7]: tracked inversely with the mean particle diameter
